How the values were obtained:
[1] = test system: HIF-1α and HIF-2α protein; experiment: Immunoblot of nuclear extracts of Hep3B cells; assay type: cell-based, human; settings: 5 μM, 24 hours
Protocol: Figure 1 Identification of HIF inhibitors. (A) Hep3B-c1 cells were stably transfected with firefly luciferase (FLuc) reporter p2.1, which contains a hypoxia-response element (HRE), and Renilla luciferase (RLuc) reporter pSVR. (B) Hep3B-c1 cells were incubated with vehicle (Veh; 0.1% DMSO; blue bars) or 10 μM 32-134D (red bars) at 20% O2 (n = 6) or 1% O2 (n = 12) for 24 hours. Cell lysates were assayed for Fluc/Rluc activity (mean ± SEM); *P < 0.05 versus vehicle (χ^2 test). (C) Chemical structures and IC50 values for HIF inhibitors. (D and E) Hep3B cells were exposed to 20% O2 with vehicle, or 1% O2 with vehicle (blue bar), 32-134D (red bars), 33-063 (green bars), or PT2385 (brown bars) for 24 hours and CA9 (D) and EPO (E) mRNAs were quantified by RT-qPCR. […] (F) Hep3B cells were exposed to 20% or 1% O2 in the presence of vehicle or 1% O2 in the presence of 5 μM 32-134D (n = 3 each) for 24 hours. RNA sequencing identified genes with hypoxia-induced expression (blue circle) and genes that were inhibited by 32-134D (orange circle), based on FDR < 0.05 and fold change > 1.5. (G) Hep3B cells were exposed to 20% or 1% O2 for 24 hours in the presence of vehicle or 5 μM 32-134D, nuclear extracts were prepared, and immunoblot assays were performed. […]

[2] = test system: Hep3B tumor xenograft; experiment: Hep3B tumor xenograft growth in nude mice; assay type: in vivo, nude (nu/nu) mice
Protocol: Hep3B cells were injected subcutaneously into nude (nu/nu) mice and when tumors reached a volume of 150 mm^3 (designated day 1), the mice were treated with vehicle or 32-134D by daily intraperitoneal injection. […] Treatment with 32-134D for 17 days had no effect on mouse appearance, behavior, or body weight (Supplemental Figure 4B). We treated additional mice with 32-134D at a dose of 40 mg/kg versus vehicle and confirmed inhibition of tumor growth without effects on body weight (Supplemental Figure 5, A–C).
Figure 2 Effect of 32-134D on Hep3B tumor xenograft growth and vascularization. (A) Female nude mice received a subcutaneous injection of […] Hep3B cells. When tumors reached a volume of 150 mm^3 (designated treatment day 1), the mice were randomized to receive a daily intraperitoneal injection of 32-134D at a dose of 0 (blue), 20 (black), 40 (red), or 80 (green) mg/kg. Data are presented as mean tumor volume (± SEM; n = 4 each). **P < 0.01, ***P < 0.001 (ANOVA with Bonferroni’s post hoc test). (B) Gross pathology of tumors harvested from vehicle-treated (top panel) and 32-134D–treated (bottom panel) mice. (C) Nuclear extracts prepared from tumors were assayed by immunoblotting using antibodies against the indicated proteins. (D) Total RNA was isolated from tumor tissue and analyzed by RT-qPCR using primers specific for the indicated mRNAs and results (mean ± SEM, n = 4) were normalized to the mean value for tumors from vehicle-treated mice. (E) ELISA for the indicated proteins was performed using aliquots of tumor lysates (mean ± SEM; n = 3–4 tumors each). *P < 0.05 (Mann-Whitney test). (F) Formalin-fixed and paraffin-embedded tumor sections were analyzed by immunohistochemistry using an antibody against CD31 to identify vascular endothelial cells. Scale bar: 100 μm. The total CD31^+ vessel area per field was quantified using ImageJ (mean ± SEM; n = 4 tumors with 5 sections per tumor). *P < 0.05 (Student’s t test).
Female nude mice (NCI Athymic NCr-nu/nu) and male C57L mice were purchased from Charles River and The Jackson Laboratory, respectively. Hep3B (8 × 10^6) and Hepa1-6 (1 × 10^7) cells were resuspended in PBS and Matrigel (1:1, vol/vol) and implanted subcutaneously in 6- to 8-week-old mice, and tumor volume was calculated as V = abc × 0.52. For Hep3B tumor studies, once tumors reached 100 to 150 mm^3, mice were randomized into groups to receive daily intraperitoneal injection of either 32-134D or vehicle only (20% PEG-400, 10% Cremophor EL, 10% ethanol in PBS). For Hepa1-6 tumors, mice were randomized to receive treatment once tumors became palpable (tumor eradication experiment) or reached a volume of 200 mm^3 (harvesting of tumors for flow cytometry and analysis of RNA and protein expression). Tumors were harvested 4 hours after the last treatment (see Supplemental Table 6 for reagent sources).
Supplemental Figure 4. […]
Female nude mice received a subcutaneous injection of 8 x 10^6 Hep3B cells. […] (A) Tumor volumes were determined every other day. […] (B) Body weights of tumor-bearing mice were measured every other data and are presented as mean + SEM (n = 3-4 per group). […]
Supplemental Figure 5. […] (A-D) Tumor bearing mice were treated with daily intraperitoneal injection of vehicle (black) or 32-134D (red; 40 mg/kg) and individual (A) and mean (B) tumor volumes as well as body weight (C) were determined every other day and mean tumor weights (D) were determined on day 17 (mean + SEM, n =4). *P < 0.05 by ANOVA. […]

In the case of `Brc1ccc2c(-c3csc(-c4c[nH]c5c(Br)cccc45)n3)c[nH]c2c1` [Compound 32-134D], the HIF-1α protein expression [1] is reported as “inhibited”, the tumor xenograft growth ([2]; 20 mg/kg daily intraperitoneal, P < 0.01 vs vehicle) is reported as “partial growth inhibition” and the tumor xenograft growth ([2]; 40 mg/kg daily intraperitoneal, P < 0.001 vs vehicle) is reported as “maximal growth inhibition”. For the same compound, the “tumor mass at harvest” value ([2]; 40 mg/kg, day 17, P < 0.05) was “significantly decreased”, the tumor xenograft growth ([2]; 80 mg/kg daily intraperitoneal, P < 0.001 vs vehicle) was “maximal growth inhibition” and the “mouse appearance, behavior, or body weight” value ([2]; treatment for 17 days) was “no effect”.
